Source: paper PMC9501356, “New Sulfamethoxazole Derivatives as Selective Carbonic Anhydrase IX and XII Inhibitors: Design, Synthesis, Cytotoxic Activity and Molecular Modeling” (Pharmaceuticals, 2022)
≈ marks a conversion by molar mass, not a printed value. Read-outs that look alike come from different tables or passages of the source.

Assays:
[1] = MTT cytotoxicity assay on MCF10a; type: cell-based; conditions: human, MCF10a normal breast cells, MCF10a normal breast cell line
Method: (§1) Suppling, specification and incubation of MCF7 and MCF10a cell lines were carried out according to the method mentioned in detail in Supplementary Material Section S2.
(§2) MTT assay is a method used for in vitro cytotoxicity of different compounds. The method details are illustrated in Supplementary Material Section S2. […]
(§3) Carbonic Anhydrase (CA) catalyzes the reversible reaction of CO2 + […]
(§4) H2O = HCO3- + H+. […]
(§5) 400 nm[40] and the activity was calculated using the following equation: […] = HCO3- + H+. […]
(§6) 96 well plate. […]
(§7) 400 nm[41] and the activity was calculated using the following equation: […]
(§8) S2.2.6. Cell culture Protocol
(§9) MCF7 and MCF10a cell lines were obtained from American Type
(§10) Culture Collection, the cultured cells were grown using DMEM
(§11) (Invitrogen/Life Technologies) in 10% fetal bovine serum (FBS), 10 μg/ml of insulin (Sigma), and 1% penicillin-streptomycin antibiotics. Other chemicals and reag ents were from ob tained f rom S igma or In vitrogen. Cells d en sity was 1.2 – 1.8 × 10^3 cells/well in a volume of 100 µl complete growth medium + 100 μl of the tested compound/well in a 96-well plate for 24 hours performing […]
(§12) assay. After treatment of cells with the serial concentrations of the tested compounds, incubation for 48 h at 37 °C is carried out.
(§13) S2.2.7. MTT – Cytotoxicity assay protocol
(§14) MTT assay is a method used for in vitro cytotoxicity of different compounds. MTT vial was reconstituted in 3 ml growth media and diluted
(§15) MTT in an amount equal to 10% of the culture medium volume. After 4hrs incubation of the reagent with the treated MCF7 and MCF10a cells, culture media was removed from incubator and dissolve the resulting formazan crystals by adding an amount of MTT solubilizing solution equal volume with the original culture medium.

[2] = biological target: T1, recombinant Human Carbonic Anhydrase I (Homo sapiens, UniProt P00915); assay: CA1 inhibitory assay (4-nitrophenyl acetate esterase); type: biochemical; conditions: average ± SEM, three independent experiments; read-out: Carbonic Anhydrase IC50 (uM) hCA I
T1 construct: purchased R and D system (MN, USA)
T1 sequence (P00915 whole entry): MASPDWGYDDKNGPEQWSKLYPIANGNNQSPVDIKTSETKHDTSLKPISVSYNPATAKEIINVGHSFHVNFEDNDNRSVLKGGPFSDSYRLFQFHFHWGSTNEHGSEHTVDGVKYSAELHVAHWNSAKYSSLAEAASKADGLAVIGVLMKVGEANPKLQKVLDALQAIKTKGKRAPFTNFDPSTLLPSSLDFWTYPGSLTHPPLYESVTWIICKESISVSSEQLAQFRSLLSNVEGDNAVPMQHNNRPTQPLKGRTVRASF
Method: The hCA I was assayed following the manufacturer’s instruction and reported method (Supplementary Material Section S2) (Table 2). […]
(§16) Carbonic Anhydrase (CA) catalyzes the reversible reaction of CO2 +
H2O = HCO3- + H+. Carbonic Anhydrase I (CAI) was measured following the manufacturer’s instruction. […]
(§17) 400 nm[40] and the activity was calculated using the following equation: […]
S2.2.4. CA1 inhibitory assay
(§18) Carbonic Anhydrase (CA) cataly zes the reversible reaction of CO2 + H2O = HCO3- + H+. Carbonic Anhydrase I (CAI) was measured following the […]
Tris, 75 mM NaCl, pH 7.5). The substrate (4-Nitroph enyl acetate, 4NPA, 100 mM stock in acetone) was diluted in 2 mM in assay buffer. The reaction was started by adding 50 µL of 2 mM substrate with 50 µL of 100 ng/µL rhCAI in […]
as §6, §7

[3] = tested on: MCF7 cells; assay: MTT cytotoxicity assay on MCF7 (hypoxia and normoxia); type: cell-based; conditions: Homo sapiens
Method: as §1, §2, §3, §4, §5, §6, §7, §8, §9, §10, §11, §12, §13
MTT assay is a method used for in vitro cytotoxicity of different compounds. […]

[4] = biological target: T2, hCA II (Homo sapiens, UniProt P00918); assay: CAII inhibitory assay (p-nitrophenyl acetate); type: biochemical; conditions: average ± SEM, three independent experiments; read-out: Carbonic Anhydrase IC50 (uM) hCA II
T2 construct: purchased BPS bioscience (CA, USA)
Method: CAII was assayed following the manufacturer’s instruction and reported method (Supplementary Material Section S2) (Table 2). […]
as §16, §4, §17
= HCO3- + H+. […]
as §6, §7
S2.2.5. CAII inhibitory assay
CAII was assayed following the manufacturer’s instruction. A amount
of 1,400 pmol/min/µg assay mixture containing 100 mM NaCl, 15 mM Tris-

[5] = tested on: MCF10a cells; assay: MTT cytotoxicity assay on MCF10a; type: cell-based; conditions: MCF10a normal breast cell line
Method: as §1, §2, §3, §4, §5, §6, §7, §8, §9, §10, §11, §12, §13, §14, §15

[6] = biological target: T3, hCA IX (Homo sapiens, UniProt Q16790); assay: hCA IX inhibitory assay; type: biochemical; conditions: average ± SEM, three independent experiments; read-out: Carbonic Anhydrase (IC50, nM) CA-IX
T3 construct: purchased BPS bioscience (CA, USA)
Method: The hCA IX was assayed following the manufacturer’s instruction and reported method. (Table 1, Figure 3A,B) (Supplementary Material Section S2). […]
mixture was incubated for 30 min at room temperature and the absorbance was measured at 405nm.
(§19) S2.2.3. hCAXII inhibitory assay
as §16
H2O = HCO3- + H+. Carbonic Anhydrase I (CAI) was measured following the manufacturer’s instruction. In brief, recombinant Human
Carbonic Anhydrase XII (rh CAXII) was diluted to […] in assay buffer (12.5 mM Tris, 75 mM NaCl, pH 7.5). The substrate (4-Nitrophenyl acetate, 4NPA, 100 mM stock in acetone) was diluted in 2 mM in assay buffer. The reaction was started by adding 50 µL of 2 mM substrate with 50 µL of 20 ng/µL rhCAXII in 96 well plate. Substrate blank containing 50 µL of assay buffer and 50 µL of substrate was included. The kinetics for 5 min of the reaction mixtures were measured at wavelength of 400 nm[40] and the activity was calculated using the following equation: […]
as §18, §7
CAII was assayed following the manufacturer’s instruction. […] Incubate for 30 min at RT and the resulted absorbance was measured at 405 nm. […]

[7] = biological target: T4, recombinant Human Carbonic Anhydrase XII (Homo sapiens, UniProt O43570); assay: hCA XII inhibitory assay (4-nitrophenyl acetate esterase); type: biochemical; conditions: average ± SEM, three independent experiments; read-out: Carbonic Anhydrase (IC50, nM) CA-XII
T4 construct: purchased R and D system (MN, USA)
T4 sequence (O43570 25-354): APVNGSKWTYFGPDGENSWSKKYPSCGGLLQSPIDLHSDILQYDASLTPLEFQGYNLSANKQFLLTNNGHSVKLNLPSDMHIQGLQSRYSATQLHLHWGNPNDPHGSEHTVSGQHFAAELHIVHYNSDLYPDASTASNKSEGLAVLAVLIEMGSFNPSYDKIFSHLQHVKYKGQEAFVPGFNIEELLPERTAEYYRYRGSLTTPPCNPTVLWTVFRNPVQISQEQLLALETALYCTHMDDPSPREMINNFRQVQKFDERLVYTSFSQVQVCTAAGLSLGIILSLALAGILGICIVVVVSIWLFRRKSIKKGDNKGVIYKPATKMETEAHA
Method: mixture was incubated for 30 min at room temperature and the absorbance […]
as §19, §16
H2O = HCO3- + H+. Carbonic Anhydrase I (CAI) was measured following the manufacturer’s instruction. In brief, recombinant Human […]
mM Tris, 75 mM NaCl, pH 7.5). The substrate (4-Nitrophenyl acetate, 4NPA, 100 mM stock in acetone) was diluted in 2 mM in assay buffer. The reaction was started by adding 50 µL of 2 mM substrate with 50 µL of 20 ng/µL rhCAXII in 96 well plate. Substrate blank containing 50 µL of assay buffer and 50 µL of substrate was included. The kinetics for 5 min of the reaction mixtures were measured at wavelength of 400 nm[40] and the activity was calculated using the following equation:
Specific Activity (pmol/min/µg) = Adjusted Vmax (OD/ mi n) x Conver sion Factor (pmol /OD) amount of enzyme (µg) S2.2.4. CA1 inhibitory assay
as §18
Tris, 75 mM NaCl, pH 7.5). The substrate (4-Nitroph enyl acetate, 4NPA, 100 mM stock in acetone) was diluted in 2 mM in assay buffer. The reaction was started by adding 50 µL of 2 mM substrate with 50 µL of 100 ng/µL rhCAI in 96 well plate. […]
as §7

Compound | IC50 [2] | IC50 [4] | IC50 [6] | IC50 [7] | IC50 at 48 h [1] | IC50 ([3]; MCF7, MCF7, hypoxia, read-out: Cytotoxicity (IC50 µg/mL) MCF7 Hypoxia) | IC50 ([3]; MCF7, MCF7, normoxia, read-out: Cytotoxicity (IC50 µg/mL) MCF7 Normoxia) | Cytotoxicity (IC50 µg/mL) MCF10a [5]
Cc1ccc(C(=O)Nc2ccc(S(=O)(=O)Nc3cc(C)on3)cc2)cc1 [S8, 4-Methyl-N-(4-(N-(5-methylisoxazol-3-yl)sulfamoyl)phenyl)benzamide] | 1.02 ± 0.049 µM | 1.85 ± 0.12 µM |  |  | 31.6 ± 1.71 µg/mL (≈ 85.2 µM) | 3.64 ± 0.2 µg/mL (≈ 9.8 µM) | 7.68 ± 0.41 µg/mL (≈ 20.7 µM) | 
C=CCN(c1cc(C)on1)S(=O)(=O)c1ccc(N)cc1 [S2, N-Allyl-4-amino-N-(5-methylisoxazol-3-yl)benzenesulfonamide] | 0.177 ± 0.008 µM | 0.102 ± 0.006 µM |  |  |  |  |  | 
Cc1ccc(/C=C2\SC(Nc3ccc(S(=O)(=O)Nc4cc(C)on4)cc3)=NC2=O)cc1 [S19, (Z)-4-((5-(4-Methylbenzylidene)-4-oxo-4,5-dihydrothiazol-2-yl)amino)-N-(5-methylisoxazol-3-yl)benzenesulfonamide] |  |  |  | 0.9 nM |  |  |  | 

The remaining compounds from weak to strong by IC50 [2], led by results:

IC50 [2] | IC50 [4] | IC50 [6] | IC50 [7] | Compound | IC50 at 48 h [1] | IC50 ([3]; MCF7, MCF7, hypoxia, read-out: Cytotoxicity (IC50 µg/mL) MCF7 Hypoxia) | IC50 ([3]; MCF7, MCF7, normoxia, read-out: Cytotoxicity (IC50 µg/mL) MCF7 Normoxia) | Cytotoxicity (IC50 µg/mL) MCF10a [5]
0.121 ± 0.006 µM | 0.543 ± 0.03 µM |  |  | Cc1cc(NS(=O)(=O)c2ccc(NC(=O)c3ccc(Cl)cc3)cc2)no1 [S9, 4-Chloro-N-(4-(N-(5-methylisoxazol-3-yl)sulfamoyl)phenyl)benzamide] | 34.7 ± 1.87 µg/mL (≈ 88.6 µM) |  |  | 46.72 ± 2.52 µg/mL
0.08 ± 0.003 µM | 0.199 ± 0.011 µM | 0.042 nM |  | CCCN(c1cc(C)on1)S(=O)(=O)c1ccc(N)cc1 [S3, 4-Amino-N-(5-methylisoxazol-3-yl)-N-propylbenzenesulfonamide] |  |  |  | 
